The record followed here is patent US4927820A, “Fused heterocyclic derivatives of 1,2,3,4-tetrahydroacridine” (priority 1988, dated 1990).

The target of experiment [1] is acetylcholinesterase (Homo sapiens, UniProt P22303). Nature of the experiment: Cholinesterase inhibition assay (photometric method of Ellman et al.). Format: biochemical. (In Ellman's method for cholinesterases, released thiocholine reacts with DTNB.)
Experiment [2] has as its system scopolamine induced memory deficit in mice. Briefly: Dark Avoidance Assay (reversal of scopolamine induced memory deficit). Format: in vivo. As to conditions: retest 24 hours later. As for the experimental part: This utility can also be ascertained by determining the ability of these compounds to restore cholinergically deficient memory in the Dark Avoidance Assay. In this assay mice are tested for their ability to remember an unpleasant stimulus for a period of 24 hours. A mouse is placed in a chamber that contains a dark compartment; a strong incadescent light drives it to the dark compartment, where an electric shock is administered through metal plates on the floor. The animal is removed from the testing apparatus and tested again, 24 hours later, for the ability to remember the electric shock.
If scopolamine, an anticholinergic that is known to cause memory impairment, is administered before an animal's initial exposure to the test chamber, the animal re-enters the dark compartment shortly after being placed in the test chamber 24 hours later. This effect of scopolamine is blocked by an active test compound, resulting in a greater interval before re-entry into the dark compartment.
The results for an active compound are expressed as the percent of a group of animals in which the effect of scopolamine is blocked, as manifested by an increased interval between being placed in the test chamber and re-entering the dark compartment.

acetylcholinesterase, sequence (P22303 32-614): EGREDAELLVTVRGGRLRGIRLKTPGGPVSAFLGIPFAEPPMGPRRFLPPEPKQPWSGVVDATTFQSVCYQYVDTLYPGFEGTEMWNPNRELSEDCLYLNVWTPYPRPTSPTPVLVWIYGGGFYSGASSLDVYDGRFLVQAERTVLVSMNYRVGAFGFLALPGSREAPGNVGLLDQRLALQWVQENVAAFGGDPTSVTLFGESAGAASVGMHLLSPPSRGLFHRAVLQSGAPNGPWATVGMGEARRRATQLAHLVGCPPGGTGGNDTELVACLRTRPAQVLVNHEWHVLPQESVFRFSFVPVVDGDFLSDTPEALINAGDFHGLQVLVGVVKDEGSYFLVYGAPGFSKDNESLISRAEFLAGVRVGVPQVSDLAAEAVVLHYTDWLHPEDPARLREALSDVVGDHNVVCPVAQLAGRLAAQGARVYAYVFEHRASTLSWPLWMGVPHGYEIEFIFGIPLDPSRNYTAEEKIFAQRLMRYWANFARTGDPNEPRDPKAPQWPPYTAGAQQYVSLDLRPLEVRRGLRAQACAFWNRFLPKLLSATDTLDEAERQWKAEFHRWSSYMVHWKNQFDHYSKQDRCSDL

With `Fc1ccc(C2Nc3c4c(nc5ccccc35)CCCC4O2)cc1` (stereo not shown) [2-(4-Fluorophenyl)-1,2,3a,4,5,6-hexahydro[1,3]oxazino[6,5,4-kl]acridine], the IC50 (in general, the concentration needed to halve the response being measured) in experiment [1] came to 21 µM.
Turning to `c1ccc(C2Nc3c4c(nc5ccccc35)CCCC4O2)cc1` (stereo not shown) [2-Phenyl-1,2,3a,4,5,6-hexahydro[1,3]oxazino[6,5,4-kl]acridine], the IC50 in experiment [1] was found to be 36 µM. In addition, in experiment [2] (dose 5.0 mg/kg body weight), the “% of animals with scopolamine induced memory deficit reversal” value stood at 27%.
In the case of `CNC(=O)Oc1ccc2c(c1)[C@]1(C)CCN(C)[C@@H]1N2C` [Physostigmine, reference compound], in experiment [2] (dose 0.31 mg/kg body weight, reference), the “% of animals with scopolamine induced memory deficit reversal” value was 20%.
